Among the data in patent US9284321B2, “Piperazino[1,2-a]indol-1-ones and [1,4]diazepino[1,2-a]indol-1-one” (Hoffmann-La Roche Inc., priority 2012, dated 2016) are EC (150% of control) and melting point values, retold here.

Data set [1] deals with human embryonic stem cell derived neural stem cells (NSCs). The experiment in a line: Neural Stem Cell Proliferation Assay (neurogenesis assay, ATP levels by CellTiterGlo). The conditions noted are these: 96 h, compound concentration at which 150% activity of control (100%) is reached, NSC proliferation by ATP level after 4 days incubation, dose response 8 μM to 8 nM. In kind it is cell-based. The protocol:
Neurogenic properties of small molecules are determined based on the proliferation of human embryonic stem cell derived neural stem cells (NSCs) which were derived via a dual smad inhibition as previously described (Chambers, S. M., et al., Highly efficient neural conversion of human ES and iPS cells by dual inhibition of SMAD signaling, Nature biotechnology, 2009. 27(3): p. 275-80.)
Compounds respond is measured by the increase in cells based on ATP levels
(Promega:CellTiterGlo®) after an incubation period of 4 days.
NSCs are thawed and expanded over 3 passages. On the 14th day, NSCs are seeded in Polyornithin/Laminin coated 384 well plates at a cell density of 21′000 cells/cm^2 in a media volume of 38 μl.
4 hours after cell seeding, compound solutions are added at a volume of 2 μl. Stock solutions of the compounds (water, 5% DMSO) are diluted to obtain a dose response (11 points, dilution factor is 2), ranging from 8 μM to 8 nM. Controls are run to consistently determine the neurogenic properties of the cells:
Negative (neutral) control is cell culture Media (final DMSO concentration: 0.25%).
• 1. cell culture Media+100 ng/ml FGF2 (final DMSO concentration: 0.1%) • 2. cell culture Media+20 ng/ml EGF (final DMSO concentration: 0.1%) • 3. cell culture Media+100 ng/ml Wnt3a (final DMSO concentration: 0.1%)
After 4 days incubation at 37° C., 5% CO2, the amount of ATP per well is quantified. The ATP concentration is proportional to the cell number. ATP is quantified by using the Promega CellTiterGlo® kit. The CellTiterGlo® reagents contain a cell lysis buffer, a thermo stable luciferase (UltraGlo™ recombinant luciferase), magnesium and luciferin. Luciferin reacts with ATP producing oxyluciferin, AMP and light. The luminescence signal is proportional to the ATP content.
The value of negative (neutral) control is determined for each assay plate by taking the average of 16 negative control wells. The neurogenic compound response is calculated for each compound as (compound/Negative Control)*100.
The values of EC150 from the dose response curve are determined for each test compound. The EC150 is the compound concentration at which 150% activity of control (100%) is reached.
In general terms: In ATP-based viability assays light output follows the ATP content of the culture.

`Cc1c2n(c3c(-c4ccc(Cl)c(Cl)c4)cc(Cl)cc13)CCNC2=O` [Example 97, 8-Chloro-6-(3,4-dichloro-phenyl)-10-methyl-3,4-dihydro-2H-pyrazino[1,2-a]indol-1-one] displayed a melting point of 240 °C. The compound further had an EC (150% of control) in data set [1] of 0.056 µM.

With `Cc1c2n(c3c(-c4ccc(S(C)(=O)=O)cc4)cc(F)cc13)CCNC2=O` [Example 125, 8-Fluoro-6-(4-methanesulfonyl-phenyl)-10-methyl-3,4-dihydro-2H-1-pyrazino[1,2-a]indol-1-one], the melting point stood at 292 °C. For the same compound, the EC (150% of control) in data set [1] was determined as 0.015 µM.

Compound `Cc1c2n(c3c(-c4ccc(Cl)cc4)cc(Cl)cc13)CCCNC2=O` [Example 69, 9-Chloro-7-(4-chloro-phenyl)-11-methyl-2,3,4,5-tetrahydro-[1,4]diazepino[1,2-a]indol-1-one] yielded a melting point of 271 °C. Also, in data set [1], the EC (150% of control) is 0.061 µM.

`Cc1cc(-c2ccc(F)cc2)c2c(c1)cc1n2CCCNC1=O` [Example 57, 7-(4-Fluoro-phenyl)-9-methyl-2,3,4,5-tetrahydro-[1,4]diazepino[1,2-a]indol-1-one] registered a melting point of 234.5 °C. Also, the EC (150% of control) in data set [1] turned out to be 1.44 µM.

The compound `O=C1NCCn2c1cc1cc(OC(F)(F)F)cc(-c3ccc(C(F)(F)F)cc3)c12` [Example 216, 8-(Trifluoromethoxy)-6-[4-(trifluoromethyl)-phenyl]-3,4-dihydro-2H-pyrazino[1,2-a]indol-1-one] gave a melting point of 243 °C. This compound also came in with an EC (150% of control) in data set [1] of 0.022 µM.

For `Cc1cc(-c2cc(Cl)cc3c(C)c4n(c23)CCNC4=O)ccc1F` [Example 134, 8-Chloro-6-(4-fluoro-3-methyl-phenyl)-10-methyl-3,4-dihydro-2H-pyrazino[1,2-a]indol-1-one], the melting point stood at 235.5 °C. Further, the EC (150% of control) in data set [1] is 0.083 µM.

`N#Cc1cc(-c2cccc(Cl)c2)c2c(c1)cc1n2CCNC1=O` [Example 193, 6-(3-Chlorophenyl)-1-oxo-3,4-dihydro-2H-pyrazino[1,2-a]indole-8-carbonitrile] gave a melting point of 241.5 °C. Also, the EC (150% of control) in data set [1] was 0.32 µM.

As to `N#Cc1cc(-c2ccc(Cl)cc2Cl)c2c(c1)cc1n2CCNC1=O` [Example 175, 6-(2,4-Dichloro-phenyl)-1-oxo-1,2,3,4-tetrahydro-pyrazino[1,2-a]indole-8-carbonitrile], the melting point stood at 284.5 °C. This compound also displayed an EC (150% of control) in data set [1] of 0.034 µM.

The compound `Cc1c2n(c3c(-c4cccc(C#N)c4)cc(F)cc13)CCNC2=O` [Example 131, 3-(8-Fluoro-10-methyl-1-oxo-1,2,3,4-tetrahydro-pyrazino[1,2-a]indol-6-yl)-benzonitrile] had a melting point of 192 °C. Further, the EC (150% of control) in data set [1] was determined as 0.33 µM.

In the case of `Cc1cc(-c2ccc(Cl)cc2)c2c(c1)cc1n2CCCNC1=O` [Example 58, 7-(4-Chloro-phenyl)-9-methyl-2,3,4,5-tetrahydro-[1,4]diazepino[1,2-a]indol-1-one], the melting point was found to be 258.5 °C. In data set [1], this compound gave an EC (150% of control) of 1.51 µM.

Take `N#Cc1cc(-c2ccc(C(F)(F)F)cc2)c2c(c1)cc1n2CCCNC1=O` [Example 218, 1-Oxo-7-[4-(trifluoromethyl)-phenyl]-2,3,4,5-tetrahydro-[1,4]diazepino[1,2-a]indole-9-carbonitrile]: the melting point came out at 241.5 °C. In data set [1], this compound showed an EC (150% of control) of 0.45 µM.

`Cc1c2n(c3c(-c4ccc(N(C)C)cc4)cc(Cl)cc13)CCNC2=O` [Example 113, 8-Chloro-6-(4-dimethylamino-phenyl)-10-methyl-3,4-dihydro-2H-pyrazino[1,2-a]indol-1-one] yielded a melting point of 227 °C. This compound displayed an EC (150% of control) in data set [1] of 0.01 µM.

For `N#Cc1cccc(-c2cc(C#N)cc3cc4n(c23)CCCNC4=O)c1` [Example 269, 7-(3-Cyanophenyl)-1-oxo-2,3,4,5-tetrahydro-[1,4]diazepino[1,2-a]indole-9-carbonitrile], the melting point was found to be 225.5 °C. The EC (150% of control) in data set [1] was 1.09 µM.

`Cc1c2n(c3c(-c4ccc(F)cc4F)cc(C#N)cc13)CCNC2=O` [Example 179, 6-(2,4-Difluoro-phenyl)-10-methyl-1-oxo-1,2,3,4-tetrahydro-pyrazino[1,2-a]indole-8-carbonitrile] displayed a melting point of 237 °C. The compound further yielded an EC (150% of control) in data set [1] of 0.013 µM.

Turning to `Cc1c2n(c3c(-c4ccc(Cl)cc4)cc(C#N)cc13)CCNC2=O` [Example 163, 6-(4-Chloro-phenyl)-10-methyl-1-oxo-1,2,3,4-tetrahydro-pyrazino[1,2-a]indole-8-carbonitrile], the melting point turned out to be 298 °C. The compound also showed an EC (150% of control) in data set [1] of 0.013 µM.

On to `Cc1c2n(c3c(-c4cncnc4)cc(Cl)cc13)CCNC2=O` [Example 138, 8-Chloro-10-methyl-6-pyrimidin-5-yl-3,4-dihydro-2H-pyrazino[1,2-a]indol-1-one], for which the melting point came to 306 °C. For the same compound, in data set [1], the EC (150% of control) was 0.21 µM.

`N#Cc1cc(-c2ccnc(F)c2)c2c(c1)cc1n2CCCNC1=O` [Example 220, 7-(2-Fluoropyridin-4-yl)-1-oxo-2,3,4,5-tetrahydro-[1,4]diazepino[1,2-a]indole-9-carbonitrile] had a melting point of 275 °C. The compound further came in with an EC (150% of control) in data set [1] of 0.5 µM.

In turn, `COc1ccc(-c2cc(C#N)cc3cc4n(c23)CCCNC4=O)cc1` [Example 275, 7-(4-Methoxyphenyl)-1-oxo-2,3,4,5-tetrahydro-[1,4]diazepino[1,2-a]indole-9-carbonitrile] yielded a melting point of 260.5 °C. The same compound had an EC (150% of control) in data set [1] of 1.11 µM.

In turn, `Cc1ccc(-c2cc(C#N)cc3c(C)c4n(c23)CCCNC4=O)cc1F` [Example 291, 7-(3-Fluoro-4-methylphenyl)-11-methyl-1-oxo-2,3,4,5-tetrahydro-[1,4]diazepino[1,2-a]indole-9-carbonitrile] came in with a melting point of 265 °C. In data set [1], this compound displayed an EC (150% of control) of 0.16 µM.

The compound `Cc1c2n(c3c(-c4nccs4)cc(F)cc13)CCNC2=O` [Example 171, 8-Fluoro-10-methyl-6-thiazol-2-yl-3,4-dihydro-2H-pyrazino[1,2-a]indol-1-one] registered a melting point of 268 °C. In data set [1], this compound came in with an EC (150% of control) of 0.36 µM.

Compound `Cc1c2n(c3c(-c4ccc(Cl)c(Cl)c4)cc(C#N)cc13)CCCNC2=O` [Example 296, 7-(3,4-Dichlorophenyl)-11-methyl-1-oxo-2,3,4,5-tetrahydro-[1,4]diazepino[1,2-a]indole-9-carbonitrile] displayed a melting point of 254 °C. Further, the EC (150% of control) in data set [1] is 0.2 µM.

On to `Cc1c2n(c3c(-c4ccc5c(c4)OCO5)cc(Cl)cc13)CCNC2=O` [Example 103, 6-Benzo[1,3]dioxol-5-yl-8-chloro-10-methyl-3,4-dihydro-2H-pyrazino[1,2-a]indol-1-one], for which the melting point was determined as 244.5 °C. This compound also gave an EC (150% of control) in data set [1] of 0.018 µM.

For `Cc1c2n(c3c(-c4ccc(Cl)c(F)c4)cc(Cl)cc13)CCNC2=O` [Example 98, 8-Chloro-6-(4-chloro-3-fluoro-phenyl)-10-methyl-3,4-dihydro-2H-pyrazino[1,2-a]indol-1-one], the melting point was 242.5 °C. This compound registered an EC (150% of control) in data set [1] of 0.019 µM.

Consider `Cc1c2n(c3c(-c4ccc(F)c(F)c4)cc(Cl)cc13)CCNC2=O` [Example 64, 8-Chloro-6-(3,4-difluoro-phenyl)-10-methyl-3,4-dihydro-2H-pyrazino[1,2-a]indol-1-one], for which the melting point amounted to 235.5 °C. The EC (150% of control) in data set [1] was found to be 0.12 µM.

Turning to `Cc1c2n(c3c(-c4ccc(C(C)C)cc4)cc(F)cc13)CCNC2=O` [Example 127, 8-Fluoro-6-(4-isopropyl-phenyl)-10-methyl-3,4-dihydro-2H-pyrazino[1,2-a]indol-1-one], the melting point came to 177 °C. In data set [1], the EC (150% of control) came to 0.025 µM.

`Cc1c2n(c3c(-c4ccccc4)cc(C#N)cc13)CCCNC2=O` [Example 245, 11-Methyl-1-oxo-7-phenyl-2,3,4,5-tetrahydro-[1,4]diazepino[1,2-a]indole-9-carbonitrile] showed a melting point of 258 °C. In addition, the EC (150% of control) in data set [1] came out at 0.095 µM.

For the compound `Cc1c2n(c3c(-c4ccc(Cl)cc4)cc(C#N)cc13)CCCNC2=O` [Example 199, 7-(4-Chlorophenyl)-11-methyl-1-oxo-2,3,4,5-tetrahydro-[1,4]diazepino[1,2-a]indole-9-carbonitrile], the melting point is 298 °C. In data set [1], the EC (150% of control) was 0.053 µM.

One may read the melting point as the temperature of the solid-liquid transition.
